# From patent US9877981B2, “NAD biosynthesis and precursors for the treatment and prevention of cancer and proliferation” (President and Fellows of Harvard College, priority 2012, dated 2018)
# Tests used:
# [1] = system: PGC-1α/β KO myotubes; assay: qPCR of ETC genes in PGC-1α/β KO myotubes; assay type: cell-based, mouse; design: expression of mitochondrially-encoded ETC genes (ND1, CYTB, COX1, ATP6): dose or concentration left out as unconfirmed
# Description: (§1) Primary myoblasts cells were isolated from WT, SIRT1 KO (Price et al., 2012) and PGC-1α/β KO (Zechner et al., 2010) mice as previously described (Price et al., 2012). WT and PGC-1α/β KO primary myoblasts were plated and allowed to differentiate into myotubes by replacing the media with low glucose DMEM supplemented with 2% horse serum (Sigma-Aldrich) for 4 days. After the differentiation the cells were infected with empty vector or flag-SIRT1 adenovirus as described before (Gerhart-Hines et al., 2007). Media was replaced with fresh DMEM supplemented with 2% horse serum (Sigma-Aldrich) for an additional 48 hr and, after that the cells were harvested for the different assays as described. To investigate the role of HIF-1α in genome asynchrony, PGC-1α/β KO primary myotubes were treated for 12 hours with 1 mM DMOG (Sigma) or 10 μM DFO (Sigma), 24 h after infection with empty vector of flag-SIRT1 adenovirus or after 12 h treatment with 500 mM NMN (Sigma).
# RNA from skeletal muscle tissue and C2C12 cells were extracted with RNeasy mini kit (Qiagen) according to the instructions and quantified using the NanoDrop 1000 spectrophotometer (Thermo Scientific). cDNA was synthesized with the iSCRIP cDNA synthesis kit (BioRad) using 600 ng of RNA. Quantitative RT-PCR reactions were performed using 1 μM of primers and LightCycler® 480 SYBR Green Master (Roche) on an LightCycler® 480 detection system (Roche). Calculations were performed by a comparative method (2-ΔCT) using 18S as an internal control. For mtDNA analysis, total DNA was extracted with DNeasy blood and tissue kit (Qiagen). mtDNA was amplified using primers specific for the mitochondrial cytochrome c oxidase subunit 2 (COX2) gene and normalized to genomic DNA by amplification of the ribosomal protein s18 (rps18) nuclear gene. Primers were designed using the IDT software (IDT) and the primer sequences can be found in Table 1.
# [2] = system: HIF-1α; assay: Immunoblot of HIF-1α in PGC-1α/β KO myotubes; assay type: cell-based, mouse; conditions: PGC-1α/β knockout myotubes treated with DMOG
# Description: as §1, with “To investigate the role of HIF-1α in genome asynchrony, PGC-1α/β KO primary myotubes were treated for 12 hours with 1 mM DMOG (Sigma) or 10 μM DFO (Sigma), 24 h after infection with empty vector of flag-SIRT1 adenovirus or after 12 h treatment with 500 mM NMN (Sigma).” left out
# (§2) Protein extracts from tissue or C2C12 cells were obtained by lysis in ice-cold lysis buffer (150 mM NaCl, 10 mM Tris HCl (pH 7.4), 1 mM EDTA, 1 mM EGTA, 1% Triton X-100, 0.5% NP-40) supplemented with a cocktail of protease and phosphatase inhibitors (Roche). Protein content was determined by the Bradford protein assay (Biorad), and 50 μg proteins were run on SDS-PAGE under reducing conditions. […] The immunostaining was detected using horseradish peroxidase-conjugated anti-rabbit or anti-mouse immunoglobulin for 1 h at room temperature.
# [3] = system: NAD+; assay: NAD+ levels in skeletal muscle of mice treated with NMN; assay type: in vivo, C57BL/6J mice; conditions: young and old
# Description: (§3) C57BL/6J mice of 3, 6, 22, 24, or 30 months of age were obtained from the National Institutes of Aging mouse aging colony. Mice were acclimated for at least one-week prior to sacrifice. 3, and 24-month-old mice were given interperitoneal (IP) injections of 500 mg NMN/kg body weight per day or the equivalent volume of PBS for 7 consecutive days at 5:00 pm and 7:00 am on day 8 and sacrificed 4 hr after last injection. All animal studies followed the guidelines of and were approved by the Harvard Institutional Animal Care and Use Committee
# NAD^+ from C2C12 cells and skeletal muscle was quantified with a commercially available kit (BioVision) according to the manufacturer's instructions and as described before (Gomes et al., Biochim. Biophys. Acta. 1822:185-195 (2012)).
# C57BL/6J mice of 6, 22, or 30 months of age were obtained from the National Institutes of Aging mouse aging colony. Additionally 22 months old caloric restricted mice were also obtained from the National Institutes of Aging mouse aging colony. EGLN1 KO, SIRT1 KO and SIRT1 OE mice were generated as previously described (Minamishima et al., 2008; Price et al., 2012). Mice were acclimated for at least one-week prior to sacrifice. […]
# NAD^+ from skeletal muscle was quantified with a commercially available kit (BioVision) according to the manufacturer's instructions and as described before (Gomes et al., 2012). […]
# [4] = system: HIF-1α target genes (PGK-1, Glut1, PDK1 and Vegfa); assay: qPCR of HIF-1α target genes in gastrocnemius of treated mice; assay type: in vivo; conditions: 3- and 24-month-old mice, NMN 500 mg/kg IP one week
# Description: as §3
# (§4) RNA from skeletal muscle tissue and C2C12 cells were extracted with RNeasy mini kit (Qiagen) according to the instructions and quantified using the NanoDrop 1000 spectrophotometer (Thermo Scientific). cDNA was synthesized with the iSCRIP cDNA synthesis kit (BioRad) using 600 ng of RNA. Quantitative RT-PCR reactions were performed using 1 μM of primers and LightCycler® 480 SYBR Green Master (Roche) on an LightCycler® 480 detection system (Roche). Calculations were performed by a comparative method (2-ΔCT) using 18S as an internal control. […]
# RNA from skeletal muscle and aorta were extracted with RNeasy mini kit (Qiagen) according to the instructions and quantified using the NanoDrop 1000 spectrophotometer (Thermo Scientific). cDNA was synthesized with the iSCRIP cDNA synthesis kit (BioRad) using 600 ng of RNA. […]
# [5] = system: Atrogin-1 and MuRF1; assay: Immunoblot for muscle wasting markers in gastrocnemius of treated mice; assay type: in vivo; conditions: old (22-month) mice; NMN one week; skeletal muscle
# Excerpt: (§5) C57BL/6J mice of 6, 22, or 30 months of age were obtained from the National Institutes of Aging mouse aging colony. Additionally 22 months old caloric restricted mice were also obtained from the National Institutes of Aging mouse aging colony. EGLN1 KO, SIRT1 KO and SIRT1 OE mice were generated as previously described (Minamishima et al., 2008; Price et al., 2012). Mice were acclimated for at least one-week prior to sacrifice. 3, 6, 22 and 24-month-old mice were given interperitoneal (IP) injections of 500 mg NMN/kg body weight per day or the equivalent volume of PBS for 7 consecutive days at 5:00 pm and 7:00 am on day 8 and sacrificed 4 hr after last injection.
# as §2, with “conditions. The separated proteins were then electrophoretically transferred to a polyvinylidene difluoride membrane (Perkin-Elmer).” for “conditions.”
# [6] = system: inflammatory markers (TNF-α, IL-6 and IL-18); assay: qPCR of inflammatory markers in gastrocnemius of treated mice; assay type: in vivo; conditions: old (22-month) mice; NMN one week; skeletal muscle
# Excerpt: as §5, §4
# [7] = system: AKT and IRS-1 phosphorylation; assay: Insulin signaling immunoblot (p-AKT, p-IRS-1) in muscle of treated mice; assay type: in vivo; conditions: old mice treated with NMN; soleus
# Excerpt: as §5
# as §2, with “conditions. The separated proteins were then electrophoretically transferred to a polyvinylidene difluoride membrane (Perkin-Elmer).” for “conditions.”
Structure (SMILES),"effect on NMN-induced expression of mitochondrially-encoded ETC genes ([1]; PGC-1α/β KO myotubes, NMN plus 1 mM DMOG or 10 μM DFO, 12 hours)","effect on NAD (pyruvate) mediated increases in mitochondrial-encoded genes ([1]; PGC-1α/β KO myotubes, pyruvate in presence of DMOG)",expression of mitochondrial-encoded genes compared to vehicle control ([1]; PGC-1α/β knockout myotubes treated with DMOG),"effect on induction of mitochondrial ETC genes by SIRT1 overexpression ([1]; PGC-1α/β knockout myotubes with SIRT1 adenovirus, 1 mM DMOG or 10 μM DFO)",HIF-1α protein [2],"expression of mitochondrially-encoded ETC genes (ND1, CYTB, COX1, ATP6) ([1]; PGC-1α/β KO myotubes incubated with NMN (12 h))","levels of cellular NAD+ ([3]; 3- and 24-month-old C57BL/6J mice, NMN 500 mg/kg IP for one week, skeletal muscle)","levels of cellular NAD+ ([3]; 6- and 22-month-old C57BL/6J mice, NMN for one week) [fold]",expression of HIF-1α target genes [4],muscle wasting markers Atrogin-1 and MuRF1 [5],expression of inflammation markers [6],age-induced insulin resistance in the skeletal muscle [7],phosphorylation of AKT and IRS-1 [7]
"COC(=O)CNC(=O)C(=O)OC [DMOG, dimethyloxaloylglycine]",completely abolished,inhibited,induced a decline in the expression of mitochondrial-encoded genes,completely blocked,stabilizes HIF-1α protein,,,,,,,,
"NC(=O)c1ccc[n+]([C@@H]2O[C@H](COP(=O)([O-])O)[C@@H](O)[C@H]2O)c1 [NMN, nicotinamide mononucleotide]",,,,,,induced expression of mitochondrially-encoded ETC genes,approximately 2 fold,2,suppressed the expression of HIF-1α target genes,completely reversed these markers,completely reversed these markers,reverse age-induced insulin resistance,increasing the phosphorylation
